This is an account of results in publication PMC8847575, “HSL1 and BAM1/2 impact epidermal cell development by sensing distinct signaling peptides” (Nature Communications, 2022).

The target in one assay is T1, BAM1 LRR ectodomain (Arabidopsis thaliana, UniProt O49545).
T1 construct: BAM1 (residues 20–637, AT5G65700); azurocidin or Drosophila BIP signal peptide (secretion signal) (N); made in house; host or cells: Trichoplusia ni Tnao38 insect cells (baculovirus)
T1 sequence (O49545 20-637): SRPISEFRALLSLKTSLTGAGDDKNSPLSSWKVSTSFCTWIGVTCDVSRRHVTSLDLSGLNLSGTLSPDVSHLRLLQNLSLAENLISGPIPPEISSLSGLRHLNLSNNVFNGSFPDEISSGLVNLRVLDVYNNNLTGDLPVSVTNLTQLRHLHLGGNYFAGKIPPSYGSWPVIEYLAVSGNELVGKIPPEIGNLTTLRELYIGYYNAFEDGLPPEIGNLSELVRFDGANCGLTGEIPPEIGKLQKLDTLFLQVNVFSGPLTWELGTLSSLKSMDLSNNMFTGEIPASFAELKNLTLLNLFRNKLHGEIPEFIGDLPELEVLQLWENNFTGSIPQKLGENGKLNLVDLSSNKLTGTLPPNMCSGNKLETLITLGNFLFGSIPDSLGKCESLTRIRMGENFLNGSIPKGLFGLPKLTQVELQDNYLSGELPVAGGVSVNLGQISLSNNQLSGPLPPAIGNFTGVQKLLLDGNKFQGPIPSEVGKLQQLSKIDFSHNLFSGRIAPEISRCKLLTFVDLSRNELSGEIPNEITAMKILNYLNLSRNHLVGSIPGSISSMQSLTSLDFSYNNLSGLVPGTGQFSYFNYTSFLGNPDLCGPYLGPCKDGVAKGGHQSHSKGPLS
Briefly: ITC, peptide titrated into BAM1 ectodomain. In kind it is binding. The source says: All genes used for protein expression in Trichoplusia ni Tnao38 cells[46] were codon optimized and cloned into a modified pFastBac vector (Geneva Biotech) providing an azurocidin[47] or Drosophila BIP signal peptide, a TEV (tobacco etch virus protease) cleavage site and a Strep-9xHis tandem affinity tag at their carboxy terminus. The genes used are coding for the Arabidopsis ectodomains of HSL1 (residues 17-618, AT1G28440), HAE (residues 20-620, AT4G28490) SERK1 (residues 24–213, AT1G71830), and BAM1 (residues 20–637, AT5G65700). To perform Grating-coupled interferometry (GCI) experiments, HSL1 was fused to a non-cleavable Avi-tag[49],[50]. Baculovirus generation was carried out in DH10 cells and virus amplification was done in Spodoptera frugiperda Sf9 cells. For protein expression, Trichoplusia ni Tnao38 cells were infected with HAE, HSL1, BAM1 and SERK1 virus with a multiplicity of infection (MOI) of 3. The cells were grown 1 day at 28 °C and two days at 22 °C at 110 rpm. After every expression round, secretion of our proteins was detected using an anti-His-HRP conjugated antibody from Roche (Ref:11965085001) in a 1:2000 dilution. […] Next, affinity tags were removed by incubating the purified proteins with recombinant His-tagged TEV protease, in a 1:50 ratio. The cleaved tag and the protease were separated from the ectodomains by a second Ni^2+ affinity step. Proteins were further purified by size-exclusion chromatography on a Superdex 200 Increase 10/300 GL column (GE Healthcare) equilibrated in 20 mM citric acid pH 5.0, 150 mM NaCl. Peak fractions containing the single proteins or complexes were concentrated using Amicon Ultra concentrators (Millipore, MWCO 10,000 for SERK1 and 30,000 for HAE, HSL1, and BAM1) and used for crystallization or biochemical experiments. Proteins were analyzed for purity and structural integrity by SDS-PAGE.
Experiments were performed at 25 °C using a MicroCal PEAQ-ITC (Malvern Instruments) with a 200 µL standard cell and a 40 μL titration syringe. HSL1, BAM1, and SERK1 proteins were gel-filtrated into the ITC buffer (20 mM sodium citrate pH 5.0, 150 mM NaCl). Molar protein concentrations for HSL1, BAM1, and SERK1 were calculated using their molar extinction coefficient and a molecular weight of 74,896 and 27,551 Da, respectively as previously determined. A typical experiment consisted of injecting 2 μL of a range between 75 and 600 μM solution of ligand into 10 to 30 μM HAE, HSL1, or BAM1 solution in the cell at 150 s intervals and 500 rpm stirring speed. The SERK1 vs HAE/HSL1-peptide experiments were performed by titrating 100 µM SERK1 in the cell, using the same injection pattern. ITC data were corrected for the heat of dilution by subtracting the mixing enthalpies for titrant solution injections into protein-free ITC buffer. Experiments were done in duplicates or triplicates, otherwise specified, and data were analyzed using the MicroCal PEAQ-ITC Analysis Software provided by the manufacturer. […] The N values were fitted to 1 in the analysis.

For assay [1], the target named is T2, HSL1 ectodomain (Arabidopsis thaliana, UniProt Q9SGP2).
T2 construct: HSL1 (residues 17-618, AT1G28440); azurocidin or Drosophila BIP signal peptide (secretion signal) (N); made in house; host or cells: Trichoplusia ni Tnao38 insect cells (baculovirus)
T2 sequence (Q9SGP2 17-618): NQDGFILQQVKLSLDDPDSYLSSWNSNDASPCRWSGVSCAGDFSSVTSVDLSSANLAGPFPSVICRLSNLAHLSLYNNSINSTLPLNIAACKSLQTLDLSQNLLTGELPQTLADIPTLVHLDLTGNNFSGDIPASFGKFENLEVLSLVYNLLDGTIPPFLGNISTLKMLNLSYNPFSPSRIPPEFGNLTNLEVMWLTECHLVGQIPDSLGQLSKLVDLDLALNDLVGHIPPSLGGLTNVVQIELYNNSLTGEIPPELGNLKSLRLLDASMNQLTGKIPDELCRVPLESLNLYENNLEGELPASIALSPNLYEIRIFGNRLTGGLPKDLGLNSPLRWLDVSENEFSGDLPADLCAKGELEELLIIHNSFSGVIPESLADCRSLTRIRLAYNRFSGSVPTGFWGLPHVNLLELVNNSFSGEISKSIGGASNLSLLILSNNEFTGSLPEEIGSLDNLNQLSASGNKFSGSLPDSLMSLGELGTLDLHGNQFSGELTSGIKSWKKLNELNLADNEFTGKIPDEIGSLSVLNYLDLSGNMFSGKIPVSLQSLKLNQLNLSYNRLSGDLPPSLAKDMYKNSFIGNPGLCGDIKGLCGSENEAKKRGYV
Nature of the assay: ITC, peptide titrated into isolated HSL1 ectodomain. The settings on record: peptide (syringe) into HSL1 ectodomain (cell), 25 °C, 20 mM sodium citrate pH 5.0, 150 mM NaCl, N fitted to 1, mean ± SD of at least two independent experiments, n.d = no binding detected. The source says:
All genes used for protein expression in Trichoplusia ni Tnao38 cells[46] were codon optimized and cloned into a modified pFastBac vector (Geneva Biotech) providing an azurocidin[47] or Drosophila BIP signal peptide, a TEV (tobacco etch virus protease) cleavage site and a Strep-9xHis tandem affinity tag at their carboxy terminus. The genes used are coding for the Arabidopsis ectodomains of HSL1 (residues 17-618, AT1G28440), HAE (residues 20-620, AT4G28490) SERK1 (residues 24–213, AT1G71830), and BAM1 (residues 20–637, AT5G65700). To perform Grating-coupled interferometry (GCI) experiments, HSL1 was fused to a non-cleavable Avi-tag[49],[50]. […] After every expression round, secretion of our proteins was detected using an anti-His-HRP conjugated antibody from Roche (Ref:11965085001) in a 1:2000 dilution. […] Proteins were analyzed for purity and structural integrity by SDS-PAGE.
Experiments were performed at 25 °C using a MicroCal PEAQ-ITC (Malvern Instruments) with a 200 µL standard cell and a 40 μL titration syringe. […] Molar protein concentrations for HSL1, BAM1, and SERK1 were calculated using their molar extinction coefficient and a molecular weight of 74,896 and 27,551 Da, respectively as previously determined. […] Experiments were done in duplicates or triplicates, otherwise specified, and data were analyzed using the MicroCal PEAQ-ITC Analysis Software provided by the manufacturer. […]
For orientation: ITC needs no label: the signal is the heat of the interaction.

Assay [2] has as its target T2, HSL1 ectodomain. Briefly: GCI binding kinetics, peptide vs immobilised HSL1. To be noted: HSL1 on surface, peptide as analyte, 25 °C, pH 5, one-to-one binding model, read-out: ka association rate constant, peptide vs HSL1 (GCI). The protocol:
25 μM of HSL1 were biotinylated with the biotin ligase BirA[60] (2 μM) for 1 h at 30 °C, in a volume of 200 μl. The buffer used in the reaction was: 25 mM Tris pH 8, 150 mM NaCl, 5 mM MgCl2, 2 mM 2-Mercaptoethanol, 0.15 mM Biotin, 2 mM ATP. Biotinylated proteins were purified by size-exclusion chromatography in 20 mM citric acid pH5, 150 mM NaCl and subsequently used in GCI experiments.
GCI experiments were performed with the Creoptix WAVE system (Creoptix AG, Switzerland) using 4PCP WAVE chips (thin quasiplanar polycarboxylate surface; Creoptix, Switzerland). Chips were first conditioned with borate buffer (100 mM sodium borate pH 9.0, 1 M NaCl; Xantec, Germany). Chips were activated with 1:1 mix of 400 mM N-(3-dimethylaminopropyl)-N′-ethylcarbodiimide hydrochloride and 100 mM N-hydroxysuccinimide (Xantec, Germany). Streptavidin (50 µg/ml; Sigma, Germany) in 10 mM sodium acetate pH 5.0 (Sigma, Germany) was immobilized on the chip surface until saturation was reached, followed by passivation of the surface with BSA (50 µg/ml; Sigma, Germany) in 10 mM sodium acetate pH5.0, and a final quenching step with 1 M ethanolamine pH 8.0 (Xantec, Germany). Then, biotinylated HSL1 (ligand) (80–100 μg/ml) was captured on the streptavidin surface until the desired density was reached. Normal kinetic analysis were performed to measure the binding of IDL peptides (analyte) to HSL1. Experiments were performed at 25 °C with a 1:2 dilution series from a maximum concentration of 5–50 μM peptide, in 20 mM citrate pH 5, 250 mM NaCl, 0.005% Tween-20 v/v. To analyze the interaction kinetics of the co-receptor SERK1, 2 µM of the protein was used as a higher dilution with running buffer containing 5 µM of the IDL peptides being tested. Blank injections were used for double referencing and a dimethylsulfoxide (DMSO) calibration curve for bulk correction. Analysis and correction of the obtained data were performed using the Creoptix WAVE control software (correction applied: X and Y offset; DMSO calibration; double referencing). One-to-one binding model was used for both experiments.

The target of assay [3] is HSL1 (HAESA-LIKE 1) ectodomain (Arabidopsis) (UniProt Q9SGP2). Nature of the assay: ITC; peptide (75 to 600 µM) injected into 10 to 30 µM HSL1 or BAM1 ectodomain in the cell; 25 °C; 20 mM sodium citrate pH 5.0, 150 mM NaCl; N fitted to 1.
In assay [4] the target is T3, BAM1 (BARELY ANY MERISTEM 1) ectodomain (Arabidopsis, UniProt O49545 20-637).
T3 chain: T1 sequence (O49545 20-637)
Briefly: ITC; R109P L110I.

Square brackets hold non-standard residues; d marks the D form. Peptide text beside a SMILES is read from it. Hyp = O=C(O)[C@@H]1C[C@@H](O)CN1

Usually Kd stands for a measure of binding affinity in units of concentration. At BAM1 LRR ectodomain, `CC(C)C[C@H](NC(=O)[C@@H](N)CCCNC(=N)N)C(=O)N[C@H](C(=O)N1C[C@H](O)C[C@H]1C(=O)N[C@@H](CO)C(=O)NCC(=O)N1C[C@H](O)C[C@H]1C(=O)N[C@@H](CC(N)=O)C(=O)N1CCC[C@H]1C(=O)N[C@@H](CC(C)C)C(=O)N[C@@H](Cc1c[nH]cn1)C(=O)N[C@@H](CC(N)=O)C(=O)O)C(C)C` [CLE9] (H-RLV[Hyp]SG[Hyp]NPLHN-OH) had an equilibrium dissociation constant (Kd) of 94 ± 56 nM. On HSL1 ectodomain [1], the “Kd (dissociation constant), peptide vs HSL1” value is recorded as “did not detect binding”. For `CC[C@H](C)[C@H](NC(=O)[C@@H]1CCCN1)C(=O)N1CCC[C@H]1C(=O)N1CCC[C@H]1C(=O)N[C@@H](CO)C(=O)N[C@@H](C)C(=O)N1C[C@H](O)C[C@H]1C(=O)N[C@@H](CO)C(=O)N[C@@H](CCCCN)C(=O)N[C@@H](CCCNC(=N)N)C(=O)N[C@@H](Cc1c[nH]cn1)C(=O)N[C@@H](CC(N)=O)C(=O)O` [IDA, INFLORESCENCE DEFICIENT IN ABSCISSION] (H-PIPPSA[Hyp]SKRHN-OH), at BAM1 LRR ectodomain (ITC, peptide into BAM1 ectodomain (cell), 25 °C, 20 mM sodium citrate pH 5.0, 150 mM NaCl, N fitted to 1, mean ± SD of at least two independent experiments, n.d = no binding detected), the “Kd (dissociation constant), peptide vs BAM1” value is given as “did not detect interaction”. Moreover, at HSL1 ectodomain [2], the kon was 225000 M⁻¹ s⁻¹. As for “IDA^K66AR67AH68A peptide (from UniProt Q8LAD7 58-69)”, in assay [3], the fold reduction of binding affinity against wild-type IDA amounted to 15 fold. On to RIVPSGPNPLHN [CLE9 variant with the second residue substituted by the corresponding one of IDA], for which the dissociation constant Kd in assay [4] amounted to 129 nM.
